In patent US11479802B2, “Assays for screening activity of modulators of members of the hydroxy steroid (17-beta) dehydrogenase (HSD17B) family” (Regeneron Pharmaceuticals, Inc., priority 2017, dated 2022):
Structures can show the parent of a compound that is named as a salt.

Molecular target: T1, human HSD17B13 (Homo sapiens, UniProt Q7Z5P4)
T1 sequence (Q7Z5P4 20-300): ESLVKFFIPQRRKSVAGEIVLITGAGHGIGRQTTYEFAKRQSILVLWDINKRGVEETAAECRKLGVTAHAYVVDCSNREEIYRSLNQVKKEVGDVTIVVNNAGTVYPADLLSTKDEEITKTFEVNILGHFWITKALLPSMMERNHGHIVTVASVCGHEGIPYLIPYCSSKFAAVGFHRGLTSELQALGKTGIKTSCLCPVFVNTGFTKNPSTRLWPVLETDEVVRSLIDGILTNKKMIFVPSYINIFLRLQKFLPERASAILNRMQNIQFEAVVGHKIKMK
Experiment: Substrate screening of steroid and bioactive lipid libraries against purified recombinant HSD17B13 (NADH-linked luciferase assay)
Assay type: biochemical
Details: for HSD17B13 Enzymatic Activity Relative Light Units: 500 μM NAD+, 100 ng enzyme, 3 hours at 23° C.; for HSD17B13 Enzymatic Activity Percent Estradiol Control: normalized to 50 μM estradiol after subtraction of 5% DMSO
In short: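 Substrates (bioactive lipids 5 μM, steroids 50 μM; 5% DMSO) tested with 500 μM NAD+ and 100 ng recombinant human HSD17B13 in 0.2 M Tris-HCl pH 7.5, 3 h, 23° C. Luminescent NADH detection followed 1 h later; RLU normalized to estradiol (50 μM, 100%) and DMSO (0%) controls.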

[1] = Bioactive Lipid Library, 5 μM bioactive lipid (Estradiol Control 50 μM)
[2] = Bioactive Lipid Library, 5 μM bioactive lipid

SMILES	HSD17B13 Enzymatic Activity Relative Light Units [1] [RLU]	HSD17B13 Enzymatic Activity Percent Estradiol Control [2] [%]	HSD17B13 Enzymatic Activity Relative Light Units (Steroid Library, 50 μM steroid) [RLU]	HSD17B13 Enzymatic Activity Percent Estradiol Control (Steroid Library, 50 μM steroid) [%]
CCCCC[C@H](O)/C=C/C=C\C/C=C\C/C=C\CCCC(=O)O [15(S)-HETE]	1107240	24.49	–	–
CCCCC[C@H](O)/C=C/C=C\C/C=C\CCCCCCC(=O)O [15(S)-HETrE]	638320	26.14	–	–
CCCCC[C@@H](/C=C/C=C\CCCCCCCCCC(=O)O)OO [15(S)-HpEDE]	232720	−4.02	–	–
CC/C=C\C[C@@H](/C=C/C=C\C/C=C\C/C=C\CCCC(=O)O)OO [15(S)-HpEPE]	316200	2.18	–	–
CCCCCC(=O)/C=C/C=C\CCCCCCCCCC(=O)O [15-OxoEDE]	261480	−1.88	–	–
CCCCCC(=O)/C=C/C=C\C/C=C\C/C=C\CCCC(=O)O [15-OxoETE]	616120	−8.98	–	–
CCCCC(C)(C)[C@H](O)/C=C/[C@H]1[C@H](O)CC(=O)[C@@H]1C/C=C\CCCC(=O)Oc1ccc(NC(=O)c2ccc(NC(C)=O)cc2)cc1 [16,16-dimethyl Prostaglandin E2 p-(p-acetamidobenzamido) phenyl ester]	322280	3.10	–	–
CC1(C)[C@@H](O)CC[C@]2(C)[C@H]3C(=O)C=C4[C@@H]5C[C@@](C)(C(=O)O)CC[C@]5(C)CC[C@@]4(C)[C@]3(C)CC[C@@H]12 [18beta-Glycyrrhetinic acid]	–	–	32720	−2.23
C[C@@H](O)CCC[C@H](O)/C=C/[C@H]1C=CC(=O)[C@@H]1C/C=C\CCCC(=O)O [19(R)-hydroxy Prostaglandin A2]	323320	3.18	–	–
C[C@@H](O)CCC[C@H](O)/C=C/[C@H]1[C@H](O)CC(=O)[C@@H]1CCCCCCC(=O)O [19(R)-hydroxy Prostaglandin E1]	333160	3.96	–	–
C[C@@H](O)CCC[C@H](O)/C=C/[C@H]1[C@H](O)CC(=O)[C@@H]1C/C=C\CCCC(=O)O [19(R)-hydroxy Prostaglandin E2]	347280	5.07	–	–
C[C@@H](O)CCC[C@H](O)/C=C/[C@@H]1[C@@H](CCCCCCC(=O)O)[C@@H](O)C[C@H]1O [19(R)-hydroxy Prostaglandin F1α]	207560	−5.97	–	–
C[C@@H](O)CCC[C@H](O)/C=C/[C@@H]1[C@@H](C/C=C\CCCC(=O)O)[C@@H](O)C[C@H]1O [19(R)-hydroxy Prostaglandin F2α]	371400	6.98	–	–
O=C(CCC/C=C\C/C=C\C/C=C\C/C=C\CCCCCO)NCCO [20-HETE Ethanolamide]	879760	41.89	–	–
O=C(O)CCC/C=C\C/C=C\C/C=C\C/C=C\CCCCCO [20-HETE]	332640	0.57	–	–
O=C(O)CCC/C=C\C/C=C\C/C=C\C/C=C\CCCCCC(=O)O [20-carboxy Arachidonic Acid]	293760	−2.36	–	–
O=C(O)CCCC/C=C\C[C@@H](O)/C=C/C=C/C=C\[C@@H](O)CCCC(=O)O [20-carboxy Leukotriene B4]	400440	9.28	–	–
O=C(O)CCC[C@H](O)\C=C/C=C/C=C/[C@H](O)C/C=C\CCCCCO [20-hydroxy Leukotriene B4]	654120	29.33	–	–

SMILES	HSD17B13 Enzymatic Activity Relative Light Units [1] [RLU]	HSD17B13 Enzymatic Activity Percent Estradiol Control [2] [%]	HSD17B13 Enzymatic Activity Relative Light Units (Steroid Library, 50 μM steroid) [RLU]	HSD17B13 Enzymatic Activity Percent Estradiol Control (Steroid Library, 50 μM steroid) [%]
O=C(O)CCC/C=C\C[C@H]1C(=O)C[C@@H](O)[C@@H]1/C=C/[C@@H](O)CCCCCO [20-hydroxy Prostaglandin E2]	348240	5.15	–	–
O=C(O)CCC/C=C\C[C@@H]1[C@@H](/C=C/[C@@H](O)CCCCCO)[C@H](O)C[C@@H]1O [20-hydroxy Prostaglandin F2α]	378680	7.56	–	–
C[C@]12C[C@H]3S[C@H]3C[C@@H]1CC[C@@H]1[C@@H]2CC[C@@]2(C)[C@H]1CC[C@@]2(C)O [(2a,3a,52,17b)-Androstan-17ol,2,3-epithio-17-methyl]	–	–	100160	−1.06
C[C@]12CCC(=O)C=C1CC[C@@H]1[C@@H]2[C@@H](O)C[C@]2(C=O)[C@@H](C(=O)CO)CC[C@@H]12 [Aldosterone]	–	–	217400	0.99
C[C@]12CCC(=O)C[C@@H]1CC[C@@H]1[C@@H]2CC[C@]2(C)[C@@H](OC(=O)c3ccccc3)CC[C@@H]12 [Androstanolone 17-benzoate]	–	–	217200	0.99
C[C@]12CCC(=O)C=C1CC[C@@H]1[C@@H]2CC[C@]2(C)C(=O)CC[C@@H]12 [Androstenedione]	–	–	172400	0.21
O=c1cc(-c2ccc(O)cc2)oc2cc(O)cc(O)c12 [Apigenin]	–	–	24440	−2.38
CC[C@H](CC[C@@H](C)[C@H]1CC[C@H]2[C@@H]3CC=C4C[C@@H](O)CC[C@]4(C)[C@H]3CC[C@]12C)C(C)C [Beta-sitosterol]	–	–	168880	0.14
CCCCC[C@H](O)/C=C/[C@@H]1[C@H]2C/C(=C/CCCC(=O)O)C[C@H]2C[C@H]1O [Carbaprostacyclin]	380280	7.68	–	–
CCCCC[C@H](O)/C=C/[C@H]1CC2CC(C2)[C@@H]1C/C=C\CCCC(=O)O [Carbocyclic Thromboxane A2]	309000	2.05	–	–
CCCCC[C@H](O)/C=C/[C@H]1[C@H](O)C[C@]2(C)C/C(=C\CCCC(=O)[O-])C[C@H]12.CCCCC[C@H](O)/C=C/[C@H]1[C@H](O)C[C@]2(C)C/C(=C\CCCC(=O)[O-])C[C@H]12.[Ca+2] [Ciprostene (calcium salt)]	360560	6.12	–	–
C[C@]12C[C@H](O)[C@H]3[C@@H](CCC4=CC(=O)CC[C@@]43C)[C@@H]1CC[C@@H]2C(=O)CO [Corticosterone]	–	–	215320	0.96
C[C@]12CCC(=O)C=C1CC[C@@H]1[C@@H]2[C@@H](O)C[C@@]2(C)[C@H]1CC[C@]2(O)C(=O)CO [Cortisol]	–	–	40080	−2.10
CC(=O)OCC(=O)[C@@]1(O)CC[C@H]2[C@@H]3CCC4=CC(=O)CC[C@]4(C)[C@H]3C(=O)C[C@@]21C [Cortisone 21-acetate]	–	–	200240	0.69
C[C@]12CCC(=O)C=C1CC[C@@H]1[C@@H]2C(=O)C[C@@]2(C)[C@H]1CC[C@]2(O)C(=O)CO [Cortisone]	–	–	204080	0.76
O=P([O-])(O)OC1[C@@H](O)[C@H](OP(=O)([O-])O)C(OP(=O)([O-])O)[C@H](OP(=O)([O-])O)[C@H]1O.[Na+].[Na+].[Na+].[Na+] (stereo partly drawn) [D-myo-Inositol-1,2,3,5-tetraphosphate (sodium salt)]	430640	7.98	–	–
O=P(O)(O)O[C@@H]1[C@H](OP(=O)(O)O)[C@H](OP(=O)(O)O)[C@@H](O)[C@H](O)[C@H]1OP(=O)(O)O [D-myo-Inositol-1,2,3,6-tetraphosphate (sodium salt)]	424280	7.49	–	–
